This experiment deals with T1, Topo II (Giardia duodenalis, UniProt E2RU90).
T1 construct: gene GL50803_0016975
T1 sequence (E2RU90 1-1491): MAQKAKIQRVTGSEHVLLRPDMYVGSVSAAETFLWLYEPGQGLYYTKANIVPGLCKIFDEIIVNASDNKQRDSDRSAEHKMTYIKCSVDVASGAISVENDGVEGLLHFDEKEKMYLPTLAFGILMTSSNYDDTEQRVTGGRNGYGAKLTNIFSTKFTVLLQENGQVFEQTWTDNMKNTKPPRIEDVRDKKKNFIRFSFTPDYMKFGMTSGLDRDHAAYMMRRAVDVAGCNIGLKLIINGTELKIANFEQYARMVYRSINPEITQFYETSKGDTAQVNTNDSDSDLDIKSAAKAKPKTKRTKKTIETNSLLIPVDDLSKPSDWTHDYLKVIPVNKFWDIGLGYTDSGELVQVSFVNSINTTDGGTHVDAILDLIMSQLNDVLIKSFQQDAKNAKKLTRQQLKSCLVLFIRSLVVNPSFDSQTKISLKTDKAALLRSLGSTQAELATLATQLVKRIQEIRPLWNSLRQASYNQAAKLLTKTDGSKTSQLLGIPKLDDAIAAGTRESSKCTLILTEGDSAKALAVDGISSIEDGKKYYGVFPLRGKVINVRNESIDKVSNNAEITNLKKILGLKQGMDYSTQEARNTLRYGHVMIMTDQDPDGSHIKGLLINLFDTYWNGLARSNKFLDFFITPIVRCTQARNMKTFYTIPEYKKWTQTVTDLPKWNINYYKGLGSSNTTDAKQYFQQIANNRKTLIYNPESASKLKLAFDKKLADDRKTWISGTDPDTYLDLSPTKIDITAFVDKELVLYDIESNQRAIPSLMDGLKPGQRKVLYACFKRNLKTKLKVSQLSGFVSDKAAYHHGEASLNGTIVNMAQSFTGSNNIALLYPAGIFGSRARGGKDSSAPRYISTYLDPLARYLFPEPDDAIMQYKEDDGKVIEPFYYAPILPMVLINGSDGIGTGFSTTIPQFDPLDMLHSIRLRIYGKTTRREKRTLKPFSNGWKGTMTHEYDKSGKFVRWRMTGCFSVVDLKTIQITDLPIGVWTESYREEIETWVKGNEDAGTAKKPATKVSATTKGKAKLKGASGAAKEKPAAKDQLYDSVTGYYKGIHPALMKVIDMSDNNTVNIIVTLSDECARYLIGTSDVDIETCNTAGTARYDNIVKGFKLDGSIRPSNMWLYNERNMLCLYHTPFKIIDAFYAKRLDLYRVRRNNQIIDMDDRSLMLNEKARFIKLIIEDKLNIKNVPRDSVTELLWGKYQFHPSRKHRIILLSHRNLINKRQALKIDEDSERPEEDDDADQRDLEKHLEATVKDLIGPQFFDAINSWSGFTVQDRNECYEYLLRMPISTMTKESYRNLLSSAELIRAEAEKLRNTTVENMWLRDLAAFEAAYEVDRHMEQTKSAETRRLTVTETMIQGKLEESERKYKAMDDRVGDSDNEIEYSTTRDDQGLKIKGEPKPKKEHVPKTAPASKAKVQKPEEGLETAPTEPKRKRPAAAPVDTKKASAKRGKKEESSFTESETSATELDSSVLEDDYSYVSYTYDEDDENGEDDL
The experiment in a line: pUC119 plasmid DNA cleavage assay, agarose gel. The settings on record: 12 mM etoposide in Me2SO (Me2SO alone also raised cleavage); 5 mM Mg2+, pH 7.5, 37 °C; traps cleavage complex. Type of experiment: biochemical.

The values below come from paper PMC3656124, “DNA Topoisomerase II Is Involved in Regulation of Cyst Wall Protein Genes and Differentiation in Giardia lamblia” (PLoS Neglected Tropical Diseases, 2013).

With `COc1cc([C@@H]2c3cc4c(cc3[C@@H](O[C@@H]3O[C@@H]5CO[C@@H](C)O[C@H]5[C@H](O)[C@H]3O)[C@H]3COC(=O)[C@H]23)OCO4)cc(OC)c1O` [etoposide], the “increase of DNA cleavage activity” value was “addition of etoposide slightly increased DNA cleavage activity of Topo II”.
